One assay concerns mast cell tryptase. The assay is described as follows: Cell-based assay for screening tryptase inhibitors (MCP-1 degradation in medium of anti-IgE-stimulated mast cells). To be noted: for Inhibition of the degradation of MCP-1 in the reaction medium: 6-hour reaction medium of anti-IgE-stimulated mast cells incubated with inhibitor at 37° C. for 16 hours, FIG. 7. Also noted: species or system human. As for the experimental part: Primary human mast cells with functional phenotype of connective tissue-type mast cells were derived from peripheral blood using the protocol described in Example 1. Cells were stimulated via the high-affinity IgE receptors (FcERI) using an anti-IgE antibody and kept under various conditions (see conditions A to G below) for 6 hours and 16 hours. The supernatants were then collected and the MCP-1 level in the supernatants was determined.

For assay [1], the system named is human mast cells. The assay is described as follows: Inhibition of IgE-dependent degranulation (histamine release in response to anti-IgE). The assay is classed as cell-based. To be noted: IgE-sensitized human mast cells challenged with anti-IgE; FIG. 5.
Method: Cultured mast cells at week 6, week 9 and week 12 were harvested, counted and seeded into 24-well plates in complete IMDM with 100 ng/ml SCF and 50 ng/ml IL-6. • IgE-dependent activation: Human mast cells were first sensitized by 0.5 μg/ml human myeloma IgE (Merck) in culture medium overnight. Unbound IgE was then removed by washing once with PBS. The cells were then resuspended in full HEPES buffer (FHB: 137 mM NaCl, 5.56 mM glucose, 12 mM HEPES, 2.7 mM KCl, 0.4 mM NaH2PO4 and 1 mM CaCl2 at pH 7.4) supplemented with 0.03% human albumin (HA) (for release of histamine and PGD2) or in IMDM with 10% FBS (for release of IL-8). […] 3.b Histamine Release Histamine released into the reaction buffer and the remaining granular histamine in the pellets were collected and analyzed by using Bran+Luebbe Autoanalyzer (AAIII Autoanalyzer, Bran+Luebbe, Germany) which chemically extracted histamine from the samples as described by Siraganian (Siraganian, R. P. 1974, Analytical Biochemistry 57(2): 383-394). […] For all stimulation studies, histamine released into the supernatant was expressed as a percentage of total cellular histamine content and all histamine release values were corrected for the spontaneous histamine release in buffer alone.
For assay [2], the system named is human mast cells. The assay is described as follows: Mast cell activation: release of histamine, PGD2 and IL-8 in response to stimuli. The assay is classed as cell-based. To be noted: human mast cells generated in Example 1, cultured 6 weeks or more; FIGS. 1-4. As for the experimental part:
To validate that the human mast cell cultures are functionally responsive, the release of histamine, prostaglandin D2 (PGD2) and interleukin-8 (IL-8) in response to stimulations by anti-IgE, aggregated IgG1, Toll-like receptor ligands, Substance P, compound 48/80 and ionophores was measured.
Cultured mast cells at week 6, week 9 and week 12 were harvested, counted and seeded into 24-well plates in complete IMDM with 100 ng/ml SCF and 50 ng/ml IL-6. • IgE-dependent activation: Human mast cells were first sensitized by 0.5 μg/ml human myeloma IgE (Merck) in culture medium overnight. Unbound IgE was then removed by washing once with PBS. […]
Histamine released into the reaction buffer and the remaining granular histamine in the pellets were collected and analyzed by using Bran+Luebbe Autoanalyzer (AAIII Autoanalyzer, Bran+Luebbe, Germany) which chemically extracted histamine from the samples as described by Siraganian (Siraganian, R. P. 1974, Analytical Biochemistry 57(2): 383-394). […] For all stimulation studies, histamine released into the supernatant was expressed as a percentage of total cellular histamine content and all histamine release values were corrected for the spontaneous histamine release in buffer alone. […]

Ends that are not written are not given here.

On to `NC(=O)[C@@H]1CCCN1C(=O)[C@H](CCCN=C(N)N)NC(=O)c1ccc2ccccc2c1O` [APC366], for which the “MCP-1 level relative to condition A (peak MCP-1 level at the 6th hour after stimulation)” value with mast cell tryptase (inhibitor added at 6th hour, 16 hours at 37° C., FIG. 8) was “approximate the same”.
Regarding `CC(C)C[C@H](NC(=O)[C@@H](O)[C@H](N)Cc1ccccc1)C(=O)O` [Bestatin], the “Inhibition of the degradation of MCP-1 in the reaction medium” value with mast cell tryptase is given as “not”.
`CC(C)C[C@H](NC(=O)[C@@H](NC(=O)N[C@@H](Cc1ccccc1)C(=O)O)[C@@H]1CCN=C(N)N1)C(=O)N[C@H](C=O)Cc1ccccc1` [Chymostatin]: the “Inhibition of the degradation of MCP-1 in the reaction medium” value with mast cell tryptase was “not”.
Turning to `CC(C)(C)NCC(O)c1ccc(O)c(CO)c1` (centres unmarked) [Salbutamol], the “Inhibition of IgE-dependent degranulation (histamine release)” value in the assay with human mast cells [1] is “can be inhibited”.
For “Substance P (RPKPQQFFGLM; ends and bridges not checked; UniProt P20366 58-68, looked up)”, the “Release of histamine, PGD2 and IL-8 in response to stimulation” value with human mast cells [2] is “Release of histamine, PGD2 and IL-8 was observed”.

(Values after patent US9394519B2, “Methods to produce mast cell culture” (Apollonian Biosystems Limited, priority 2011, dated 2016).)
